Experimental findings from paper PMC11800497, “Antifungal activity and biocompatibility assessment with molecular docking and dynamic simulations of new pyrazole derivatives” (BMC Biotechnology, 2025) are described below.

Assay in all cases: Well-diffusion antifungal activity
(In agar diffusion tests the substance spreads into inoculated agar from a disc or well.)

The subject of one experiment is A. niger ATCC 11414. It counts as cell-based, Aspergillus niger. Conditions: for AI (activity index): relative to Fluconazole 1000 µg/ml; for zone of inhibition at 1000 µg/mL: Aspergillus niger, read-out: IZD.
The test system of a further experiment is A. flavus ATCC 9643. It counts as cell-based, Aspergillus flavus. The conditions noted are these: for zone of inhibition at 1000 µg/mL: Aspergillus flavus, read-out: IZD. On the procedure: (§1) This study investigated strains of four distinct fungal pathogens: Aspergillus flavus ATCC 9643, A. niger ATCC 11414, Rhizopus oryzae ATCC 96382, and Penicillium chrysogenum ATCC 10106. Every strain was acquired from the Dep. of Micro. Fac. Agric., […] Uni., in Egypt. Initially kept and preserved in malt agar medium at 4 °C, the pathogens were then grown overnight at 28 °C in malt broth medium to evaluate the antifungal activity. Fungal pathogen standard inoculum was prepared by following the procedure described by. To assess the antifungal activity, the pathogens were first maintained and stored at 4 °C in malt agar medium. They were then cultured in malt broth medium for a whole night at 28 °C. According to [22], the well-diffusion technique was used to test the antifungal activity. This included using a 9.0 mm cork borer that had been sterilized to create wells in the malt agar layer. […] After adding 1000 μg/ml of control pyrazole compounds and the standard antifungal (Fluconazole 1000 μg/ml) to each well, the petri dishes were incubated at 28 °C for 72 h. The diameter of the standard reference antifungal was compared to the millimeters measurements of the inhibitory zones. The formula according to [22] was utilized to compute the activity index (AI).1 [drawing 1]

Experiment [1] concerns P. chrysogenum ATCC 10106. It counts as cell-based, Penicillium chrysogenum. Conditions: for zone of inhibition at 1000 µg/mL: Penicillium chrysogenum, read-out: IZD; for AI (activity index): relative to Fluconazole 1000 µg/ml. On the procedure:
as §1

The test system of the next experiment is R. oryzae ATCC 96382. It counts as cell-based, Rhizopus oryzae. The conditions noted are these: Rhizopus arrhizus, read-out: IZD. On the procedure: as §1
The mark [2] stands for this setting: ATCC11414, 1000 µg/ml, 72 h, 28 °C.
[3] abbreviates: ATCC9643, 1000 µg/ml, 72 h, 28 °C.
Where [4] appears, read: ATCC10106, 1000 µg/ml, 72 h, 28 °C.
Where [5] appears, read: ATCC96382, 1000 µg/ml, 72 h, 28 °C.

The structures appear in SMILES notation. Where two headings read alike, the source gives them in different places. Marks after values point to notes of the source that are not given here.

Method for A. niger ATCC 11414: This study investigated strains of four distinct fungal pathogens: Aspergillus flavus ATCC 9643, A. niger ATCC 11414, Rhizopus oryzae ATCC 96382, and Penicillium chrysogenum ATCC 10106. Every strain was acquired from the Dep. of Micro. Fac. Agric., […] Uni., in Egypt. Initially kept and preserved in malt agar medium at 4 °C, the pathogens were then grown overnight at 28 °C in malt broth medium to evaluate the antifungal activity. Fungal pathogen standard inoculum was prepared by following the procedure described by [19, 20]. To assess the antifungal activity, the pathogens were first maintained and stored at 4 °C in malt agar medium. They were then cultured in malt broth medium for a whole night at 28 °C. According to [22], the well-diffusion technique was used to test the antifungal activity. This included using a 9.0 mm cork borer that had been sterilized to create wells in the malt agar layer. […] After adding 1000 μg/ml of control pyrazole compounds and the standard antifungal (Fluconazole 1000 μg/ml) to each well, the petri dishes were incubated at 28 °C for 72 h. The diameter of the standard reference antifungal was compared to the millimeters measurements of the inhibitory zones. The formula according to [22] was utilized to compute the activity index (AI).1 [drawing 1]

As for `CN(C)C=C1C(=O)NN=C(c2cn(-c3ccccc3)nc2-c2ccccc2)C1=O` [compound 12], the IZD with A. niger ATCC 11414 (1000 µg/ml, 72 h, 28 °C) was 25 ± 0.08^f mm; in the experiment on A. flavus ATCC 9643 (1000 µg/ml, 72 h, 28 °C) it was 23 ± 0.02^d mm. For the same molecule, the “AI (activity index)” value in the experiment on A. niger ATCC 11414 (1000 µg/ml) was found to be 0.78. Besides, the zone of inhibition at 1000 µg/mL in the experiment on A. niger ATCC 11414 (setting [2]) was determined as 25 mm; in the experiment with A. flavus ATCC 9643 (setting [3]), 23 mm; in experiment [1] (setting [4]), 0 mm; in the experiment on R. oryzae ATCC 96382 (setting [5]) it was 0 mm.
On to `Cc1ccc(N=Nc2ccc3oc(=O)c(C(=O)NN=Cc4cn(-c5ccccc5)nc4-c4ccccc4)cc3c2)cc1` [10b], for which the IZD is given as 28 ± 0.12^c mm in the experiment on A. niger ATCC 11414 (1000 µg/ml, 72 h, 28 °C) and 20 ± 0.13^e mm in experiment [1] (1000 µg/ml, 72 h, 28 °C). Also, the “AI (activity index)” value (in the experiment with A. niger ATCC 11414 (1000 µg/ml); in experiment [1] (1000 µg/ml)) was 0.87 in each case. The zone of inhibition at 1000 µg/mL in the experiment with A. niger ATCC 11414 (setting [2]) was found to be 28 mm; with A. flavus ATCC 9643 (setting [3]) it was 0 mm; in experiment [1] (setting [4]), 20 mm; in the experiment with R. oryzae ATCC 96382 (setting [5]), 0 mm.
On to `N#C/C(=C\c1cn(-c2ccccc2)nc1-c1ccccc1)C(=O)Nc1nc2ccccc2s1` [3h], for which the zone of inhibition at 1000 µg/mL in the experiment with A. niger ATCC 11414 (setting [2]) was found to be 0 mm; in the experiment with A. flavus ATCC 9643 (setting [3]) it was 0 mm; in experiment [1] (setting [4]) it was 15 ± 0.25 mm; with R. oryzae ATCC 96382 (setting [5]) it was 0 mm. Besides, the “AI (activity index)” value in experiment [1] (1000 µg/ml) amounted to 0.65.
On to `O=Cc1cn(-c2ccccc2)nc1-c1ccccc1` [compound 1, 1,3-diphenyl-1H-pyrazole-4-carbaldehyde], for which the zone of inhibition at 1000 µg/mL in the experiment on A. niger ATCC 11414 (ATCC11414, 72 h) amounted to 0 mm; with A. flavus ATCC 9643 (ATCC9643, 72 h), 0 mm; in experiment [1] (ATCC10106, 72 h) it was 0 mm; with R. oryzae ATCC 96382 (ATCC96382, 72 h) it was 0 mm.
For the molecule `N#C/C(=C\c1cn(-c2ccccc2)nc1-c1ccccc1)C(=O)Nc1ccc(Cl)cc1` [3d], the zone of inhibition at 1000 µg/mL (with A. niger ATCC 11414 (setting [2]); in the experiment on A. flavus ATCC 9643 (setting [3]); in experiment [1] (setting [4]); with R. oryzae ATCC 96382 (setting [5])) was 0 mm each time.
In the case of `OC(Cn1cncn1)(Cn1cncn1)c1ccc(F)cc1F` [Fluconazole, reference compound], the zone of inhibition at 1000 µg/mL amounted to 32 ± 0.2 mm in the experiment on A. niger ATCC 11414 (setting [2]), 30.02 ± 0.05 mm in the experiment on A. flavus ATCC 9643 (setting [3]), 23.1 ± 0.06 mm in experiment [1] (setting [4]) and 20.99 ± 0.05 mm with R. oryzae ATCC 96382 (setting [5]).
For the molecule `O=C1OC(=O)c2c(Br)c(Br)c(Br)c(Br)c21` [compound 5, 4,5,6,7 tetrabromoisobenzofuran-1,3-dione], the zone of inhibition at 1000 µg/mL (in the experiment on A. niger ATCC 11414 (setting [2]); in the experiment on A. flavus ATCC 9643 (setting [3]); in experiment [1] (setting [4]); in the experiment on R. oryzae ATCC 96382 (setting [5])) was 0 mm in each case.
As to `N#C/C(=C\c1cn(-c2ccccc2)nc1-c1ccccc1)C(=O)Nc1ccc(Br)cc1` [3c], the zone of inhibition at 1000 µg/mL (in the experiment with A. niger ATCC 11414 (setting [2]); with A. flavus ATCC 9643 (setting [3]); in experiment [1] (setting [4]); with R. oryzae ATCC 96382 (setting [5])) was 0 mm in each case.
As for `Cc1ccc(NC(=O)/C(C#N)=C/c2cn(-c3ccccc3)nc2-c2ccccc2)cc1` [3a], the zone of inhibition at 1000 µg/mL (in the experiment on A. niger ATCC 11414 (setting [2]); in the experiment on A. flavus ATCC 9643 (setting [3]); in experiment [1] (setting [4]); with R. oryzae ATCC 96382 (setting [5])) was 0 mm each time.
For the molecule `N#C/C(=C\c1cn(-c2ccccc2)nc1-c1ccccc1)C(=O)Nc1ccc(C(=O)O)cc1` [3e], the zone of inhibition at 1000 µg/mL (with A. niger ATCC 11414 (setting [2]); in the experiment on A. flavus ATCC 9643 (setting [3]); in experiment [1] (setting [4]); with R. oryzae ATCC 96382 (setting [5])) was 0 mm each time.
Regarding `N#C/C(=C\c1cn(-c2ccccc2)nc1-c1ccccc1)C(=O)Nc1nccs1` [3g], the “AI (activity index)” value in the experiment with A. niger ATCC 11414 (1000 µg/ml) turned out to be 0.56. Besides, the zone of inhibition at 1000 µg/mL with A. niger ATCC 11414 (setting [2]) came out at 18 ± 0.77 mm; with A. flavus ATCC 9643 (setting [3]) it was 0 mm; in experiment [1] (setting [4]) it was 0 mm; with R. oryzae ATCC 96382 (setting [5]), 0 mm.
As to `O=C(NN=Cc1cn(-c2ccccc2)nc1-c1ccccc1)c1cc2ccccc2oc1=O` [10a], the zone of inhibition at 1000 µg/mL (with A. niger ATCC 11414 (setting [2]); in the experiment on A. flavus ATCC 9643 (setting [3]); in experiment [1] (setting [4]); with R. oryzae ATCC 96382 (setting [5])) was 0 mm throughout.
Turning to `N#Cc1c(-c2cn(-c3ccccc3)nc2-c2ccccc2)[nH][nH]c1=O` [compound 7], the zone of inhibition at 1000 µg/mL stood at 0 mm in the experiment on A. niger ATCC 11414 (setting [2]), 0 mm with A. flavus ATCC 9643 (setting [3]), 13 ± 0.11 mm in experiment [1] (setting [4]) and 0 mm with R. oryzae ATCC 96382 (setting [5]). The “AI (activity index)” value in experiment [1] (1000 µg/ml) is reported as 0.56.
As for `N#CCC(=O)NN=Cc1cn(-c2ccccc2)nc1-c1ccccc1` [compound 8], the zone of inhibition at 1000 µg/mL (with A. niger ATCC 11414 (setting [2]); in the experiment with A. flavus ATCC 9643 (setting [3]); in experiment [1] (setting [4]); with R. oryzae ATCC 96382 (setting [5])) was 0 mm in each case.
For the molecule `N#C/C(=C\c1cn(-c2ccccc2)nc1-c1ccccc1)C(=O)Nc1ccc([N+](=O)[O-])cc1` [3f], the zone of inhibition at 1000 µg/mL (in the experiment on A. niger ATCC 11414 (setting [2]); with A. flavus ATCC 9643 (setting [3]); in experiment [1] (setting [4]); in the experiment on R. oryzae ATCC 96382 (setting [5])) was 0 mm each time.
For the molecule `CN(C)/C=C(\C#N)C(=O)N/N=C/c1cn(-c2ccccc2)nc1-c1ccccc1` [compound 11], the zone of inhibition at 1000 µg/mL (in the experiment on A. niger ATCC 11414 (setting [2]); in the experiment with A. flavus ATCC 9643 (setting [3]); in experiment [1] (setting [4]); in the experiment on R. oryzae ATCC 96382 (setting [5])) was 0 mm in each case.
